From the NIST ThermoML archive (doi:10.1016/j.jct.2013.10.013)
± gives the expanded uncertainty stated by the source.

How the values were obtained:
[1] = xn = mol fraction of the nth substance listed; details: 101 kPa, Liquid, Vibrating tube method
[2] = 283.15 K; 101 kPa; Liquid; Vibrating tube method

CC(C)COCCO [2-(2-methylpropoxy)ethanol] + O
mass density [kg/m3], [1]
Details	x1 = 0.000617	x1 = 0.001164	x1 = 0.001812	x1 = 0.00198	x1 = 0.003969	x1 = 0.006759	x1 = 0.009969	x1 = 0.01319
283.15 K	999.515 ± 0.2	999.412 ± 0.2	999.296 ± 0.2	999.307 ± 0.2	999.013 ± 0.2	998.702 ± 0.2	998.438 ± 0.2	998.199 ± 0.2
288.15 K	998.897 ± 0.2	998.784 ± 0.2	998.655 ± 0.2	998.645 ± 0.2	998.299 ± 0.2	997.897 ± 0.2	997.523 ± 0.2	997.151 ± 0.2
293.15 K	998.017 ± 0.2	997.888 ± 0.2	997.743 ± 0.2	997.724 ± 0.2	997.322 ± 0.2	996.836 ± 0.2	996.347 ± 0.2	995.851 ± 0.2
298.15 K	996.846 ± 0.2	996.707 ± 0.2	996.548 ± 0.2	996.506 ± 0.2	996.06 ± 0.2	995.497 ± 0.2	994.904 ± 0.2	994.282 ± 0.2
303.15 K	995.459 ± 0.2	995.292 ± 0.2	995.136 ± 0.2	995.092 ± 0.2	994.592 ± 0.2	993.958 ± 0.2	993.254 ± 0.2	992.505 ± 0.2

CCCCOCCO [2-butoxyethan-1-ol] + O
mass density [kg/m3], [1]
Details	x1 = 0.000906	x1 = 0.001283	x1 = 0.001685	x1 = 0.001942	x1 = 0.003834	x1 = 0.006957	x1 = 0.009993	x1 = 0.01324
283.15 K	999.515 ± 0.2	999.44 ± 0.2	999.376 ± 0.2	999.379 ± 0.2	999.137 ± 0.2	998.855 ± 0.2	998.677 ± 0.2	998.516 ± 0.2
288.15 K	998.873 ± 0.2	998.804 ± 0.2	998.733 ± 0.2	998.742 ± 0.2	998.449 ± 0.2	998.058 ± 0.2	997.764 ± 0.2	997.453 ± 0.2
293.15 K	997.98 ± 0.2	997.897 ± 0.2	997.814 ± 0.2	997.774 ± 0.2	997.436 ± 0.2	996.956 ± 0.2	996.553 ± 0.2	996.129 ± 0.2
298.15 K	996.815 ± 0.2	996.726 ± 0.2	996.633 ± 0.2	996.592 ± 0.2	996.204 ± 0.2	995.629 ± 0.2	995.12 ± 0.2	994.56 ± 0.2
303.15 K	995.386 ± 0.2	995.295 ± 0.2	995.201 ± 0.2	995.143 ± 0.2	994.715 ± 0.2	994.053 ± 0.2	993.447 ± 0.2	992.75 ± 0.2

CC(C)NCCO [2-isopropylaminoethanol] + O
mass density [kg/m3], [1]
Details	x1 = 0.00785	x1 = 0.00993	x1 = 0.0147	x1 = 0.02052	x1 = 0.02925	x1 = 0.04009	x1 = 0.04971	x1 = 0.0589	x1 = 0.06926	x1 = 0.08132
283.15 K	998.279 ± 0.2	997.915 ± 0.2	997.627 ± 0.2	997.186 ± 0.2	997.048 ± 0.2	997.046 ± 0.2	996.952 ± 0.2	996.873 ± 0.2	996.18 ± 0.2	994.687 ± 0.2
288.15 K	997.569 ± 0.2	997.164 ± 0.2	996.747 ± 0.2	996.156 ± 0.2	995.726 ± 0.2	995.322 ± 0.2	994.86 ± 0.2	994.475 ± 0.2	993.417 ± 0.2	991.662 ± 0.2
293.15 K	996.602 ± 0.2	996.129 ± 0.2	995.555 ± 0.2	994.798 ± 0.2	994.178 ± 0.2	993.399 ± 0.2	992.61 ± 0.2	991.925 ± 0.2	990.602 ± 0.2	988.598 ± 0.2
298.15 K	995.343 ± 0.2	994.859 ± 0.2	994.252 ± 0.2	993.36 ± 0.2	992.43 ± 0.2	991.335 ± 0.2	990.229 ± 0.2	989.248 ± 0.2	987.663 ± 0.2	985.438 ± 0.2
303.15 K	993.837 ± 0.2	993.31 ± 0.2	992.597 ± 0.2	991.578 ± 0.2	990.428 ± 0.2	989.011 ± 0.2	987.652 ± 0.2	986.463 ± 0.2	984.639 ± 0.2	982.2 ± 0.2

O [water]
Details	mass density [kg/m3]
[2]	999.699 ± 0.2

O [water] + CC(C)COCCO
Details	mass density [kg/m3]
[1], 283.15 K, x2 = 0	999.699 ± 0.2

O [water] + CC(C)NCCO
Details	mass density [kg/m3]
[1], 283.15 K, x2 = 0	999.699 ± 0.2

O [water] + CCCCOCCO
Details	mass density [kg/m3]
[1], 283.15 K, x2 = 0	999.699 ± 0.2
